These results are taken from ChEMBL document CHEMBL1127252, “Anti-solid tumor efficacy and preparation of N-[[1-[[2-(diethylamino)ethyl]amino]-9-oxo-9H-thioxanthen-4-yl]methyl]methanesulfonamide (win 33377) and related derivatives” (1994).

Where only a bound is given, the exact number is not on record here.

Holding throughout (format): functional
For experiment [1], the species on record is Mus musculus. The experiment in a line: Survival (Long Term Cure) of tumor inoculated mice after 100 days.
For experiment [2], the species on record is Mus musculus. The experiment in a line: Percent tumor growth inhibition in mice.
For experiment [3], the species on record is Mus musculus. The experiment in a line: Log cell kill of tumor (indicating the tumor growth delay) in mice.
Experiment [4] has as its system Mus musculus. The experiment in a line: The maximum tolerated total dose following i.v. administration in mice.
Experiment [5] deals with Mus musculus. The experiment in a line: Maximum tolerated total dose (MTD) was determined after intravenous administration in mice.

For orientation: T/C means the ratio of treated to control. A word on the MTD: it is the highest dose tested that stayed within the study's limit of toxicity.

In the experiment listed under Mus musculus [1], `CCN(CC)CCNc1ccc(CNC(C)=O)c2sc3ccccc3c(=O)c12` returned an LTC of 3. Besides, the T/C in the experiment listed under Mus musculus [2] turned out to be 0%. In the experiment listed under Mus musculus [3], the LCK was 2.7. In the experiment with Mus musculus [4], the MTD was found to be 540 mg/kg.
Turning to `CCN(CC)CCNc1ccc(CN)c2sc3ccccc3c(=O)c12`, the LTC in the experiment filed under Mus musculus [1] is 4. The T/C in the experiment filed under Mus musculus [2] is recorded as 0%. The compound further displayed an LCK in the experiment listed under Mus musculus [3] of more than 4. The same compound yielded a maximal tolerated dose (MTD) in the experiment with Mus musculus [4] of 270 mg/kg.
In the case of `CCN(CC)CCNc1ccc(CO)c2sc3ccccc3c(=O)c12` [HYCANTHONE], the LTC in the experiment listed under Mus musculus [1] was found to be 0. This compound also yielded a T/C in the experiment listed under Mus musculus [2] of 4%. The compound also had an LCK in the experiment filed under Mus musculus [3] of 3.4. Also, in the experiment on Mus musculus [4], the MTD was determined as 290 mg/kg.
Turning to `CCN(CC)CCNc1ccc(CNS(C)(=O)=O)c2sc3ccc(OC)cc3c(=O)c12`, the LTC in the experiment filed under Mus musculus [1] was determined as 1. In the experiment listed under Mus musculus [2], this compound yielded a T/C of 0%. In addition, the LCK in the experiment filed under Mus musculus [3] worked out at 6.5. Also, the MTD with Mus musculus [4] turned out to be 248 mg/kg.
`COc1cccc2c1C(=O)c1c(O)c3c(c(O)c1C2=O)C[C@@](O)(C(=O)CO)C[C@@H]3O[C@H]1C[C@H](N)[C@H](O)[C@H](C)O1` [DOXORUBICIN]: in the experiment filed under Mus musculus [1], the LTC is listed as 1. This compound came in with a T/C in the experiment filed under Mus musculus [2] of 0%. In the experiment listed under Mus musculus [3], this compound returned an LCK of 2.9. In the experiment with Mus musculus [4], this compound displayed an MTD of 18 mg/kg.
In the experiment listed under Mus musculus [1], `CCN(CC)CCNc1ccc(CNC(=O)OC)c2sc3ccccc3c(=O)c12` returned an LTC of 2. For the same compound, in the experiment listed under Mus musculus [2], the T/C worked out at 0%. The same compound gave an LCK in the experiment filed under Mus musculus [3] of 8.8. The compound also registered an MTD in the experiment on Mus musculus [4] of 248 mg/kg.
As for `CCOP(=O)(NCc1ccc(NCCN(CC)CC)c2c(=O)c3ccccc3sc12)OCC`, in the experiment listed under Mus musculus [1], the LTC is reported as 0. In the experiment filed under Mus musculus [2], the T/C was 36%. Further, in the experiment filed under Mus musculus [3], the LCK is listed as less than 0.5. The compound further had an MTD with Mus musculus [4] of 1298 mg/kg.
On to `CCN(CC)CCNc1ccc(CNC=O)c2sc3ccccc3c(=O)c12`, for which, in the experiment listed under Mus musculus [1], the LTC was found to be 1. Also, in the experiment listed under Mus musculus [2], the T/C was found to be 0%. In the experiment listed under Mus musculus [3], the LCK was 3. In the experiment with Mus musculus [4], the MTD came out at 576 mg/kg.
On to `CCN(CC)CCNc1ccc(CNS(C)(=O)=O)c2sc3ccccc3c(=O)c12`, for which, in the experiment filed under Mus musculus [1], the LTC is recorded as 3. Further, the maximum tolerated dose (MTD) in the experiment with Mus musculus [5] was determined as 124 mg/kg. In addition, the T/C in the experiment filed under Mus musculus [2] is given as 0%. Also, the LCK in the experiment listed under Mus musculus [3] worked out at 2.
In turn, `CCN(CC)CCNc1ccc(CN(C)C)c2sc3ccccc3c(=O)c12` gave an LTC in the experiment filed under Mus musculus [1] of 0. Moreover, in the experiment listed under Mus musculus [2], the T/C was 23%. This compound had an LCK in the experiment filed under Mus musculus [3] of 0.9. The compound also registered a maximal tolerated dose (MTD) with Mus musculus [4] of 544 mg/kg.
Turning to `CCN(CC)CCNc1ccc(CNC)c2sc3ccc(OC)cc3c(=O)c12`, the LTC in the experiment listed under Mus musculus [1] was found to be 1. This compound gave a T/C in the experiment filed under Mus musculus [2] of 0%. In the experiment listed under Mus musculus [3], this compound had an LCK of 5.1. This compound also registered an MTD with Mus musculus [4] of 880 mg/kg.
Compound `CCN(CC)CCNc1ccc(CNC)c2sc3ccccc3c(=O)c12` had an LTC in the experiment filed under Mus musculus [1] of 1. For the same compound, the T/C in the experiment listed under Mus musculus [2] is reported as 0%. Moreover, the LCK in the experiment filed under Mus musculus [3] is recorded as 3.1. The compound further yielded a maximum tolerated dose (MTD) in the experiment with Mus musculus [4] of 800 mg/kg.
The corresponding values for `CCN(CC)CCNc1ccc(CNC(=O)C(F)(F)F)c2sc3ccccc3c(=O)c12` are 0, 21%, 1.5 and 1171 mg/kg.
For `CCN(CC)CCNc1ccc(CNC)c2sc3ccc(O)cc3c(=O)c12`, the LTC in the experiment filed under Mus musculus [1] came to 0. Further, the T/C in the experiment filed under Mus musculus [2] is 0%. For the same compound, the LCK in the experiment filed under Mus musculus [3] was 4.6. Also, the MTD with Mus musculus [4] turned out to be 60 mg/kg.
`CCN(CC)CCNc1ccc(CNC(=O)OC)c2sc3ccc(OC)cc3c(=O)c12`: the LTC in the experiment filed under Mus musculus [1] was 5. This compound displayed a T/C in the experiment filed under Mus musculus [2] of 0%. This compound came in with an LCK in the experiment listed under Mus musculus [3] of more than 4.5. For the same compound, the MTD in the experiment on Mus musculus [4] was determined as 240 mg/kg.
The compound `CCN(CC)CCNc1ccc(CNC(=O)c2ccccc2)c2sc3ccccc3c(=O)c12` came in with an LTC in the experiment filed under Mus musculus [1] of 1. The compound also showed a T/C in the experiment listed under Mus musculus [2] of 26%. Also, in the experiment filed under Mus musculus [3], the LCK was determined as 0.5. For the same compound, in the experiment with Mus musculus [4], the MTD was 252 mg/kg.
For `CCN(CC)CCNc1ccc(CNS(C)(=O)=O)c2sc3ccc(O)cc3c(=O)c12`, in the experiment listed under Mus musculus [1], the LTC stood at 0. This compound also registered a T/C in the experiment listed under Mus musculus [2] of 11%. This compound returned an LCK in the experiment listed under Mus musculus [3] of 3.7. In the experiment on Mus musculus [4], the maximum tolerated dose (MTD) came to 47 mg/kg.
In the experiment listed under Mus musculus [1], `CCN(CC)CCNc1ccc(CNS(=O)(=O)c2ccccc2)c2sc3ccccc3c(=O)c12` came in with an LTC of 1. The same compound displayed a T/C in the experiment filed under Mus musculus [2] of 0%. The compound also yielded an LCK in the experiment listed under Mus musculus [3] of 2.9. Also, the maximum tolerated dose (MTD) with Mus musculus [4] turned out to be 840 mg/kg.
Consider `CCN(CC)CCNc1ccc(CN(C)S(C)(=O)=O)c2sc3ccccc3c(=O)c12`, for which, in the experiment listed under Mus musculus [1], the LTC worked out at 1. The compound further had a T/C in the experiment filed under Mus musculus [2] of 0%. The LCK in the experiment listed under Mus musculus [3] is on record as 2.5. The same compound displayed an MTD in the experiment with Mus musculus [4] of 304 mg/kg.
